Test results reported in paper PMC4520562 (PLoS ONE, 2015).
Read-outs that look alike come from different tables or passages of the source.

Legend:
[1] = target: GD H6 HA (Influenza A virus (A/chicken/Guangdong/S1311/2010(H6N6)), UniProt A0A067YZV9); conditions: 2 h, pH 8.0, receptor-binding site
[2] = target: A/Taiwan/2/2013(H6N1) hemagglutinin ectodomain, trypsin-cleaved into HA1 and HA2 (influenza A virus A/Taiwan/2/2013(H6N1)); assay: crystal structure
[3] = target: A/chicken/Guangdong/S1311/2010(H6N6) hemagglutinin ectodomain, trypsin-cleaved into HA1 and HA2 (influenza A virus A/chicken/Guangdong/S1311/2010(H6N6)); assay: crystal structure

In the case of `CC(=O)N[C@H]1[C@H](O[C@H]2[C@@H](O)[C@@H](CO)O[C@@H](O[C@H]3[C@H](O)[C@@H](O)C(O)O[C@@H]3CO)[C@@H]2O)O[C@H](CO)[C@@H](O)[C@@H]1O[C@@H]1O[C@H](CO)[C@H](O)[C@H](O[C@]2(C(=O)O)C[C@H](O)[C@@H](NC(C)=O)[C@H]([C@H](O)[C@H](O)CO)O2)[C@H]1O` (stereo partly shown) [LSTa], the “X-ray crystal structure of complex” value ([1]; crystal soaked with 5 mM LSTa, first three sugars visible) is reported as “Gal-2 and GlcNAc-3 of the LSTa are clearly visualized in both GD and TW H6 HA”.

With `CC(=O)N[C@H]1[C@H](O[C@H]2[C@@H](O)[C@@H](CO)O[C@@H](O[C@H]3[C@H](O)[C@@H](O)C(O)O[C@@H]3CO)[C@@H]2O)O[C@H](CO)[C@@H](O[C@@H]2O[C@H](CO[C@]3(C(=O)O)C[C@H](O)[C@@H](NC(C)=O)[C@H]([C@H](O)[C@H](O)CO)O3)[C@H](O)[C@H](O)[C@H]2O)[C@@H]1O` (stereo partly shown) [LSTc] the “X-ray crystal structure of complex” value ([1]; crystal soaked with 5 mM LSTc, first two sugars visible) was “only the first two sugar rings are clearly visible in the complex structure of GD H6 HA-LSTc”.

“A/Taiwan/2/2013(H6N1) hemagglutinin ectodomain, trypsin-cleaved into HA1 and HA2 (domain or fragment)” gave a stoichiometry N [2] of 3.

Work on “A/chicken/Guangdong/S1311/2010(H6N6) hemagglutinin ectodomain, trypsin-cleaved into HA1 and HA2 (domain or fragment)” yielded a stoichiometry N [3] of 3.
